The record followed here is ChEMBL document CHEMBL2073978, “Interactions of n-tetraalkylammonium compounds and biguanides with a human renal organic cation transporter (hOCT2)” (Pharm Res, 2002).

For assay [1], the target named is T1, Solute carrier family 22 member 2 (Homo sapiens, UniProt O15244).
T1 sequence (O15244 whole entry): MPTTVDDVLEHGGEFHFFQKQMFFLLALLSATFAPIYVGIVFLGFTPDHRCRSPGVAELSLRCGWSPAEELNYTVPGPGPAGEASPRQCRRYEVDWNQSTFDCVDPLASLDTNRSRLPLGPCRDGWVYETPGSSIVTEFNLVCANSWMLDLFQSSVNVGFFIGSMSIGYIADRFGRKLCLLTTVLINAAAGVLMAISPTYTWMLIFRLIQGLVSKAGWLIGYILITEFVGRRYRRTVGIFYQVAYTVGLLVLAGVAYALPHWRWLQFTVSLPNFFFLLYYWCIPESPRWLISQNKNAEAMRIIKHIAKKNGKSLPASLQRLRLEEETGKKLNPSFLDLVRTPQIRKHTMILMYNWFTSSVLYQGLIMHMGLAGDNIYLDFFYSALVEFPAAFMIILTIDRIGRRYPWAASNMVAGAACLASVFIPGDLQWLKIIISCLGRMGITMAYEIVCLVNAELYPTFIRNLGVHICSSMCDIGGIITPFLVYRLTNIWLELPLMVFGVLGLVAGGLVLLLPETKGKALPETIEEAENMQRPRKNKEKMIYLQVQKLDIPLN
Put plainly: (§1) TP_TRANSPORTER: inhibition of Cimetidine uptake (Cimetidine: 1 uM) in Xenopus laevis oocytes. It counts as functional, cell-based, Oocyte.

Assay [2] has as its target T1, Solute carrier family 22 member 2. It counts as functional, cell-based, Xenopus laevis, Oocyte.
The target of assay [3] is T2, Solute carrier family 22 member 1 (Homo sapiens, UniProt O15245).
T2 sequence (O15245 whole entry): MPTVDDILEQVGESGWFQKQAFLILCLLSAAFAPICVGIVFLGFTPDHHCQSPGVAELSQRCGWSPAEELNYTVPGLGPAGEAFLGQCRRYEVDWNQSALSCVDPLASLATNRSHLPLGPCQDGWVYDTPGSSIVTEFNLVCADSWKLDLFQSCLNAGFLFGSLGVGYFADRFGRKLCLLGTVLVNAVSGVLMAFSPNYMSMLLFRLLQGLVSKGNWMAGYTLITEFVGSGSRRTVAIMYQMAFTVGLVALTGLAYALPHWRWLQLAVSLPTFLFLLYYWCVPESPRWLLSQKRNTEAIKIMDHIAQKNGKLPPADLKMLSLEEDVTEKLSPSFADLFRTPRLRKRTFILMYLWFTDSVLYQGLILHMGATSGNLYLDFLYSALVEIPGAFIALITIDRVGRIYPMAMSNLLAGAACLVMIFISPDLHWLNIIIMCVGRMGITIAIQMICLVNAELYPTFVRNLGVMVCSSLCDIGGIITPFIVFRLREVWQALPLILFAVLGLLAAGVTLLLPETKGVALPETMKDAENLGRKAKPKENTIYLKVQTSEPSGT
The assay is described as §1. It counts as functional, cell-based, Oocyte.

The IC50 is the concentration that gives 50% inhibition. A high value points to a need for much substance. The molecule `CN(C)C(=N)N=C(N)N` [METFORMIN] came in with an IC50 in assay [1] of 1700 µM.

In assay [2], `CCC[N+](CCC)(CCC)CCC` [TETRAPROPYLAMMONIUM] yielded an IC50 of 128 µM.

As to `[H]/N=C(/N)N/C(=N/[H])NCCc1ccccc1` [PHENFORMIN], the IC50 in assay [3] worked out at 10 µM; in assay [1] it was 65 µM.

The molecule `CCCC[N+](CCCC)(CCCC)CCCC` [TETRABUTHYLAMMONIUM] yielded a half-inhibitory concentration (IC50) in assay [2] of 120 µM.

As to `CC[N+](CC)(CC)CC` [TETRYLAMMONIUM], half-maximal inhibition in assay [2] (IC50) was put at 156 µM.
